Like-named read-outs stand apart in the source and are kept apart here.
Legend:
[1] = [^125I]-labeled, normal mice, brain; cited from earlier work
[2] = target: T1, intracerebral amyloid (aggregated Aβ1-42 injected into amygdaloid nucleus) (Homo sapiens, UniProt P05067); experiment: Ex vivo autoradiogram using rats of amyloid injected model (aggregated Aβ1-42); design: species or system male Wistar rat; details: rat, Aβ1-42 amyloid suspension in amygdaloid nucleus, brain removed 60 minutes after tail vein injection
T1 construct: Aβ1-42 (manufactured by Peptide Institute, Inc.) was dissolved in phosphate buffer (pH 7.4); purchased Peptide Institute, Inc
Experimental: As a control, 2.5 μL of a phosphate buffered physiological saline solution (pH 7.4) was injected into an amygdaloid nucleus on the other side of the rat. The rats were examined 1 day after the injection of the amyloid suspension and the phosphate buffered physiological saline solution (pH 7.4).
(§1) (4) Brain was removed 60 minutes after the injection to prepare a brain slice of 10 μm in thickness with a microtome (type: CM3050S, manufactured by LEICA). The brain slice was exposed to an imaging plate for 20 hours, and then image analysis was carried out by use of a Bio-imaging Analyzer (type: BAS-2500; manufactured by FUJIFILM Corporation).

[3] = Partition coefficient based on the octanol extraction method (logPoctanol); format: physicochemical; details: octanol / 10 mmol/L phosphate buffer (pH 7.4), radioactivity count
Experimental: Using the obtained radioactivity count, logPoctanol was calculated in accordance with the equation (2).

[4] = Transferability into brain and clearance (Example II-11, II-12, Comparative Example II-1); format: in vivo, male Wistar rats; details: brain, rats, intravenous injection
Experimental: The rats were sacrificed by bleeding from abdominal artery, and brains were removed and subjected to measurement of mass of brains and further subjected to measurement of radioactivity (hereinafter referred to as A in this Example) with a single channel analyzer (detector type: SP-20 manufactured by OHYO KOKEN KOGYO Co., Ltd.) 2, 5, 30 and 60 minutes after the injection. Also, radioactivity (hereinafter referred to as B in this Example) of the rest of the whole body was measured in the same manner as above. Using these measurement results, radioactive accumulation per unit weight of brain (% ID/g) at the respective time points were calculated in accordance with the following formula (6).
Three animals were used for experiment at the respective time points.

[5] = test system: Salmonella typhimurium TA100; experiment: Reverse mutation test (Ames test), TA100; format: cell-based; details: maximum 5000 μg/plate
Experimental: (§2) In order to examine mutagenicity of Compounds 1, 2 and 4, reverse mutation test using Salmonella typhimurium TA98 and TA100 (hereinafter referred to as Ames test) was conducted.
(§3) The test was conducted without addition of S9mix and with addition of S9mix. Dimethylsulfoxide was used as a negative control. A positive control was 2-(2-furyl)-3-(5-nitro-2-furyl)acrylamide in case S9mix was not added, and 2-aminoanthracene in case S9 mix was added.
(§4) The amount of each sample to be added to the test plate was 7 dosages (geometric ratio 4) with the maximum dose being 5000 μg/plate. After a sample to be examined and a strain (TA98 or TA100), or a sample to be examined, S9mix and the strain were mixed together, the mixture was multilayered using soft agar on a medium of a test plate, and then incubated at 37° C. for 48 hours.
(§5) In order to examine mutagenicity of Compound 8, reverse mutation test using Salmonella typhimurium TA98 and TA100 (hereinafter referred to as Ames test) was conducted.
(§6) The test was conducted without addition of S9mix and with addition of S9mix. Dimethylsulfoxide was used as a negative control. A positive control was 2-(2-furyl)-3-(5-nitro-2-furyl)acrylamide in case S9mix was not added, and 2-aminoanthracene in case S9mix was added.
(§7) The amount of Compound 8 to be added to the test plate was 7 dosages (geometric ratio 3) with the maximum dose being 5000 μg/plate. After Compound 8 and a strain (TA98 or TA100), or Compound 8, S9mix and the strain were mixed together, the mixture was multilayered using soft agar on a medium of a test plate, and then incubated at 37° C. for 48 hours.

[6] = test system: Salmonella typhimurium TA98; experiment: Reverse mutation test (Ames test), TA98; format: cell-based; details: maximum 5000 μg/plate
Experimental: as §2, §3, §4, §5, §6, §7

[7] = test system: Salmonella typhimurium TA98 and TA100; experiment: Reverse mutation test (Ames test), overall judgment; format: cell-based; details: TA98 and TA100, regardless of addition of S9mix
Experimental: as §2, §3, §4, §5, §6, §7

[8] = International Publication WO03/106439 pamphlet; cited from earlier work
[9] = target: intracerebral amyloid (aggregated Aβ1-40 injected into amygdaloid nucleus) (Homo sapiens, UniProt P05067); details: rat, Aβ1-40 amyloid suspension in amygdaloid nucleus, brain removed 60 minutes after tail vein injection
Experimental: The following experiment was carried out in order to examine whether amyloid in brain can be imaged by the compound of the present invention.
The rats were examined 1 day after the injection of the amyloid suspension and the phosphate buffered physiological saline solution (pH 7.4).
as §1

[10] = Transferability into brain and clearance (Example I-16, Comparative Example I-7); details: brain, rats, intravenous injection
Experimental: Using Compound 6, a time course change of radioactive accumulation in brain of male Wistar rats (7-week old) was measured.
Also, radioactivity (hereinafter referred to as B in this Example) of 0.05 mL of a 1000-fold diluted solution of the injected solution was measured in the same manner as above. Using these measurement results, radioactive accumulation per unit weight of brain (% ID/g) at the respective time points was calculated in accordance with the following formula (5).

[11] = [^125I]-labeled compounds; cited from earlier work
[12] = [^11C]-labeled, rats; cited from earlier work

T1 sequence (P05067 672-713): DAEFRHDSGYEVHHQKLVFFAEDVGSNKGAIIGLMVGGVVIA
intracerebral amyloid (aggregated Aβ1-40 injected into amygdaloid nucleus), sequence (P05067 672-711): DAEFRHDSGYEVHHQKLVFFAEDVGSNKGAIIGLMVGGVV

CN(C)c1ccc(-c2nc3ccc(I)cc3o2)cc1 [IBOX, 6-iodo-2-[4′-(N,N-dimethylamino)phenyl]benzoxazole]
Clearance from normal tissues [1]: insufficient in clearance from normal tissues

Oc1ccc(-c2cn3cccc([123I])c3n2)cc1 [Compound 11, [^123I]-2-(4′-hydroxyphenyl)-8-iodoimidazo[1,2-a]pyridine]
Accumulation of radioactivity in the amygdaloid nucleus on the amyloid-injected side (autoradiogram of brain slice) [2]: marked accumulation of radioactivity
logPoctanol value [3]: 3.0
Radioactive accumulation per unit weight, After 2 min. [4]: 0.65 % ID/g
Radioactive accumulation per unit weight, After 5 min. [4]: 0.43 % ID/g
Radioactive accumulation per unit weight, After 30 min. [4]: 0.09 % ID/g
Radioactive accumulation per unit weight, After 60 min. [4]: 0.03 % ID/g

Oc1ccc(-c2cn3cc(I)ncc3n2)cc1 [Compound 8, 2-(4′-hydroxyphenyl)-6-iodoimidazo[1,2-a]pyrazine]
Mutagenicity, With addition of S9mix, TA100 ([5]; 7 dosages (geometric ratio 3)): Negative
Mutagenicity, Without addition of S9mix, TA100 ([5]; 7 dosages (geometric ratio 3)): Negative
Mutagenicity, With addition of S9mix, TA98 ([6]; 7 dosages (geometric ratio 3)): Negative
Mutagenicity, Without addition of S9mix, TA98 ([6]; 7 dosages (geometric ratio 3)): Negative
Judgment in the Ames test (mutagenicity) [7]: negative

CN(C)c1ccc(/C=C/c2ccc(I)cc2)cc1 [m-I-SB, (E)-4-dimethylamino-4′-iodostilbene]
Clearance from normal tissues [1]: insufficient in clearance from normal tissues

CN(C)c1ccc(-c2nc3ccc(I)cc3s2)cc1 [TZDM, 6-iodo-2-[4′-(N,N-dimethylamino)phenyl]benzothiazole]
Clearance from normal tissues [1]: insufficient in clearance from normal tissues

Oc1ccc(-c2cn3cc(I)cnc3n2)cc1 [Compound 4, 2-(4′-hydroxyphenyl)-6-iodoimidazo[1,2-a]pyrimidine]
Mutagenicity, With addition of S9mix, TA100 ([5]; 7 dosages (geometric ratio 4)): Negative
Mutagenicity, Without addition of S9mix, TA100 ([5]; 7 dosages (geometric ratio 4)): Negative
Mutagenicity, With addition of S9mix, TA98 ([6]; 7 dosages (geometric ratio 4)): Negative
Mutagenicity, Without addition of S9mix, TA98 ([6]; 7 dosages (geometric ratio 4)): Negative
Judgment in the Ames test (mutagenicity) [7]: negative

Oc1ccc(-c2cn3cc(I)ccc3n2)cc1 [Compound 2, 2-(4′-hydroxyphenyl)-6-iodoimidazo[1,2-a]pyridine]
Mutagenicity, With addition of S9mix, TA100 ([5]; 7 dosages (geometric ratio 4)): Negative
Mutagenicity, Without addition of S9mix, TA100 ([5]; 7 dosages (geometric ratio 4)): Negative
Mutagenicity, With addition of S9mix, TA98 ([6]; 7 dosages (geometric ratio 4)): Negative
Mutagenicity, Without addition of S9mix, TA98 ([6]; 7 dosages (geometric ratio 4)): Negative
Judgment in the Ames test (mutagenicity) [7]: negative

CC(=C(C#N)C#N)c1ccc2cc(N(C)CCF)ccc2c1 [FDDNP, 2-(1-{6-[(2-fluoroethyl)(methyl)amino]-2-naphthyl}ethylidene)malononitrile]
Reverse mutation test result [8]: positive

Oc1ccc(-c2cn3cc([123I])ccc3n2)cc1 [Compound 6, [^123I]-2-(4′-hydroxyphenyl)-6-iodoimidazo[1,2-a]pyridine]
Accumulation of radioactivity on intracerebral amyloid (autoradiogram of brain slice) [9]: possesses a property of accumulating on intracerebral amyloid
Radioactive accumulation per unit weight, After 2 min. [10]: 0.96 % ID/g
Radioactive accumulation per unit weight, After 5 min. [10]: 0.69 % ID/g
Radioactive accumulation per unit weight, After 30 min. [10]: 0.16 % ID/g
Radioactive accumulation per unit weight, After 60 min. [10]: 0.04 % ID/g

CN(C)c1ccc(-c2cn3cc(I)ccc3n2)cc1 [IMPY, 6-iodo-2-[4′-(N,N-dimethylamino)phenyl]imidazo[1,2-a]pyridine]
Reverse mutation test result [8]: positive
Clearance from normal tissues [11]: rapid clearance from normal tissues

CN(C)c1ccc(-c2cn3cc([123I])ccc3n2)cc1 [^123I-IMPY, reference compound]
Radioactive accumulation per unit weight, After 2 min. [10]: 1.02 % ID/g
Radioactive accumulation per unit weight, After 5 min. [10]: 0.99 % ID/g
Radioactive accumulation per unit weight, After 30 min. [10]: 0.20 % ID/g
Radioactive accumulation per unit weight, After 60 min. [10]: 0.08 % ID/g
Radioactive accumulation per unit weight, After 2 min. [4]: 1.19 % ID/g
Radioactive accumulation per unit weight, After 5 min. [4]: 0.97 % ID/g
Radioactive accumulation per unit weight, After 30 min. [4]: 0.23 % ID/g
Radioactive accumulation per unit weight, After 60 min. [4]: 0.09 % ID/g

Oc1ccc(-c2cn3cc([125I])ccc3n2)cc1 [Compound 5, [^125I]-2-(4′-hydroxyphenyl)-6-iodoimidazo[1,2-a]pyridine]
logPoctanol value [3]: 1.6

Oc1ccc(-c2cn3cc([123I])cnc3n2)cc1 [Compound 9, [^123I]-2-(4′-hydroxyphenyl)-6-iodoimidazo[1,2-a]pyrimidine]
logPoctanol value [3]: 1.7

CN(C)c1ccc(-c2cn3cc([125I])ccc3n2)cc1 [[^125I]-IMPY, reference compound]
logPoctanol value [3]: 2.1

Oc1ccc(-c2cn3cc(Br)ccc3n2)cc1 [Compound 1, 6-bromo-2-(4′-hydroxyphenyl)imidazo[1,2-a]pyridine]
Mutagenicity, With addition of S9mix, TA100 ([5]; 7 dosages (geometric ratio 4)): Negative
Mutagenicity, Without addition of S9mix, TA100 ([5]; 7 dosages (geometric ratio 4)): Negative
Mutagenicity, With addition of S9mix, TA98 ([6]; 7 dosages (geometric ratio 4)): Negative
Mutagenicity, Without addition of S9mix, TA98 ([6]; 7 dosages (geometric ratio 4)): Negative
Judgment in the Ames test (mutagenicity) [7]: negative

Oc1ccc(-c2cn3cc([123I])ncc3n2)cc1 [Compound 10, [^123I]-2-(4′-hydroxyphenyl)-6-iodoimidazo[1,2-a]pyrazine]
Accumulation of radioactivity in the amygdaloid nucleus on the amyloid-injected side (autoradiogram of brain slice) [2]: marked accumulation of radioactivity
logPoctanol value [3]: 2.3
Radioactive accumulation per unit weight, After 2 min. [4]: 0.62 % ID/g
Radioactive accumulation per unit weight, After 5 min. [4]: 0.33 % ID/g
Radioactive accumulation per unit weight, After 30 min. [4]: 0.08 % ID/g
Radioactive accumulation per unit weight, After 60 min. [4]: 0.02 % ID/g

CNc1ccc(/C=C/c2ccc(O)cc2)cc1 [SB-13, (E)-4-methylamino-4′-hydroxystilbene]
Clearance from normal tissues [12]: it cannot be said that the clearance is sufficiently fast
